The numbers were not newly measured in patent US20230066947A1, “Method for the augmentation of substance abuse therapies using cannabinoid formulations” (priority 2021, published 2023), which cites them from elsewhere.

A word on the bioavailability: it is dose-corrected exposure relative to a reference, in per cent.

One data set concerns the target T1, COX-2 (Homo sapiens, UniProt P35354).
T1 sequence (P35354 18-604): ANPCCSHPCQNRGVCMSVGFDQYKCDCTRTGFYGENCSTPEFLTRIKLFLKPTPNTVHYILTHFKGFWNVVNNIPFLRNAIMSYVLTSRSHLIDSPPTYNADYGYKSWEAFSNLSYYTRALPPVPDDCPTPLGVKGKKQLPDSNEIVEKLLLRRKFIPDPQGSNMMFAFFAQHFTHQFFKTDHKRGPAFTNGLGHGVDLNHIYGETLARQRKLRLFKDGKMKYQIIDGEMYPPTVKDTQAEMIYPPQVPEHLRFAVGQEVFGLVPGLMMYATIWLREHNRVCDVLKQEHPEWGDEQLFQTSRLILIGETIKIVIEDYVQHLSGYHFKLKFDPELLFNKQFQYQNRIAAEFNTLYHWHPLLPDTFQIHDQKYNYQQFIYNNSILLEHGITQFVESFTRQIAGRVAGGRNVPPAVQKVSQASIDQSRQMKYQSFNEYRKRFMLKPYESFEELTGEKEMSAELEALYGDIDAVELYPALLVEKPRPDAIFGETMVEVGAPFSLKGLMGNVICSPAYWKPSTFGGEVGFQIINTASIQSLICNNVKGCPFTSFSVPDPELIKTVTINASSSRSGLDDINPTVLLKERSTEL
Conditions: compared with common NSAIDS.

The subject of data set [1] is specific serotonin receptor linked to anti-nausea and anti-anxiety effects.

Where two headings read alike, the source gives them in different places.

Take `C=C(C)[C@@H]1CCC(C)=C[C@H]1c1c(O)cc(CCCCC)c(C(=O)O)c1O` [CBDA]: on COX-2, the COX-2 inhibitor behavior entry is “same COX-2 inhibitor behavior”. Also, the bioavailability reads like this: (intraperitoneal administration) 80%; (orally ingested) “approximately 20%”. The “affinity to bind to a specific serotonin receptor” value in data set [1] was “far greater affinity”.
